Source: the supplement of paper PMC11208160

Experiment: recombinant UMI read abundance after kanamycin selection (control-corrected) (log10(CPM+1)); higher = more efficient recombination; extreme values may be limits of the assay; sequences stand for … in AGTGCAGAGAAAATCGGCCAGTTTTCTCTGCCTGCAGTCCGCATGCCGTGGGACCCCTTGGGTTCTAACCTGTTGCCTAGATTTATGCAGCGGACTGCCTTTCTCCCAAAGTGATAAACCGG…AGGTTGGTTTCACT; site = the 11-nt donor
In short: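 In a pooled Escherichia coli screen for the IS621 bridge recombinase, donor and donor-binding-loop pairs were each placed with a 12-nt UMI on a plasmid bearing a promoterless kanamycin gene. This library was co-electroporated with a target plasmid encoding a fixed target and T7-inducible recombinase, and cells were plated either on IPTG (0.07 mM) plus kanamycin or without selection, in two replicates each. Recombinant UMIs were PCR-amplified across the donor–target junction and sequenced, and counts were converted to CPM, averaged over replicates, scaled by control-derived factors and reported as log10(CPM+1).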
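Also: IS621 bridge recombinase in Escherichia coli cells against a fixed T5 target plasmid.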

| Sequence | recombinant UMI read abundance (log10) |
| --- | --- |
| GTTCGAGCATGGACCGGTTTTCCCGGTAATCCGTATTTGCA (site GTTCGAGCTTC) | 0.0558 |
| GTTCGAGCATGGACCGGTTTTCCCGGTAATCCGTATTTGCA (site GTTCGAGCTTG) | 2.44 |
| GTTCGAGCATGGACCGGTTTTCCCGGTAATCCGTATTTGCA (site GTTCGAGCTTT) | 0.391 |
| GTTCGAGCATGGACCGGTTTTCCCGGTAATCCGTATTTGCA (site GTTCGATCTTG) | 1.09 |
| GTTCGAGCATGGACCGGTTTTCCCGGTAATCCGTATTTGCA (site GTTCGCGCTTG) | 0.00631 |
| GTTCGAGCATGGACCGGTTTTCCCGGTAATCCGTATTTGCA (site GTTCGGGCTTG) | 1 |
| GTTCGAGCATGGACCGGTTTTCCCGGTAATCCGTATTTGCA (site GTTCGTGCTTG) | 0.477 |
| GTTCGAGCATGGACCGGTTTTCCCGGTAATCCGTATTTGCA (site GTTCTAGCTTG) | 0.494 |
| GTTCGAGCATGGACCGGTTTTCCCGGTAATCCGTATTTGCA (site GTTGGAGCTTG) | 0.345 |
| GTTCGAGCATGGACCGGTTTTCCCGGTAATCCGTATTTGCA (site GTTTGAGCTTG) | 0.607 |
| GTTCGAGCATGGACCGGTTTTCCCGGTAATCCGTATTTGCA (site TTTCGAGCTTG) | 0.829 |
| GTTCGAGCATGGACCGGTTTTCCCGGTAATCCGTATTTGCC (site GTTCGAGCTAG) | 0.379 |
| GTTCGAGCATGGACCGGTTTTCCCGGTAATCCGTATTTGCC (site GTTCGAGCTCG) | 0.00775 |
| GTTCGAGCATGGACCGGTTTTCCCGGTAATCCGTATTTGCC (site GTTCGAGCTGG) | 1.42 |
| GTTCGAGCATGGACCGGTTTTCCCGGTAATCCGTATTTGCC (site GTTCGAGCTTG) | 0.317 |
| GTTCGAGCATGGACCGGTTTTCCCGGTAATCCGTATTTGGG (site GTTCGAGCTCC) | 0.00765 |
| GTTCGGCCATGGACCGGTTTTCCCGGTAATCCGTATTTGGT (site GTTCGGCCTAC) | 0.00718 |
| GTTCTATCATGGACCGGTTTTCCCGGTAATCCGTATTTGTG (site GTTCTATCTCA) | 1.02 |
| GTTCTCACATGGACCGGTTTTCCCGGTAATCCGTATTTGGT (site GTTCTCACTAC) | 0.234 |
| GTTGCGGCATGGACCGGTTTTCCCGGTAATCCGTATTTGCT (site ATTGCGGCTAG) | 1.03 |
| GTTGCGGCATGGACCGGTTTTCCCGGTAATCCGTATTTGCT (site CTTGCGGCTAG) | 0.745 |
| GTTGCGGCATGGACCGGTTTTCCCGGTAATCCGTATTTGCT (site GTTGCGGCTAG) | 1.49 |
| GTTGCGGCATGGACCGGTTTTCCCGGTAATCCGTATTTGCT (site TTTGCGGCTAG) | 0.731 |
| GTTGGAACATGGACCGGTTTTCCCGGTAATCCGTATTTGCC (site GTTGGAACTGG) | 2.34 |
| GTTGGAACATGGACCGGTTTTCCCGGTAATCCGTATTTGTT (site GTTGGAACTAA) | 2 |

| Sequence | recombinant UMI read abundance (log10) |
| --- | --- |
| GTTGGTACATGGACCGGTTTTCCCGGTAATCCGTATTTGAC (site GTAGGTACTGT) | 1.9 |
| GTTGGTACATGGACCGGTTTTCCCGGTAATCCGTATTTGAC (site GTCGGTACTGT) | 2.31 |
| GTTGGTACATGGACCGGTTTTCCCGGTAATCCGTATTTGAC (site GTGGGTACTGT) | 0 |
| GTTGGTACATGGACCGGTTTTCCCGGTAATCCGTATTTGAC (site GTTGGTACTGT) | 2.36 |
| GTTGTTACATGGACCGGTTTTCCCGGTAATCCGTATTTGCA (site GTTGTTACTTG) | 2.25 |
| GTTGTTGCATGGACCGGTTTTCCCGGTAATCCGTATTTGGT (site GTTGTTACTAC) | 0.375 |
| GTTGTTGCATGGACCGGTTTTCCCGGTAATCCGTATTTGGT (site GTTGTTCCTAC) | 0.00209 |
| GTTGTTGCATGGACCGGTTTTCCCGGTAATCCGTATTTGGT (site GTTGTTGCTAC) | 1.83 |
| GTTGTTGCATGGACCGGTTTTCCCGGTAATCCGTATTTGGT (site GTTGTTTCTAC) | 0 |
| GTTTAAGCATGGACCGGTTTTCCCGGTAATCCGTATTTGAC (site GTTTAAGCTGT) | 2.24 |
| GTTTAGGCATGGACCGGTTTTCCCGGTAATCCGTATTTGCA (site GTTTAGGCTTG) | 2.03 |
| GTTTAGTCATGGACCGGTTTTCCCGGTAATCCGTATTTGAT (site GTTTAGTCTAT) | 1.59 |
| GTTTCGACATGGACCGGTTTTCCCGGTAATCCGTATTTGTC (site GTTTCGACTGA) | 0.157 |
| GTTTGAGCATGGACCGGTTTTCCCGGTAATCCGTATTTGCA (site GTTAGAGCTTG) | 1.32 |
| GTTTGAGCATGGACCGGTTTTCCCGGTAATCCGTATTTGCA (site GTTCGAGCTTG) | 1.89 |
| GTTTGAGCATGGACCGGTTTTCCCGGTAATCCGTATTTGCA (site GTTGGAGCTTG) | 1.55 |
| GTTTGAGCATGGACCGGTTTTCCCGGTAATCCGTATTTGCA (site GTTTGAGCTTG) | 2.07 |
| GTTTGCACATGGACCGGTTTTCCCGGTAATCCGTATTTGTA (site GTATGCACTTA) | 0.00807 |
| GTTTGCACATGGACCGGTTTTCCCGGTAATCCGTATTTGTA (site GTCTGCACTTA) | 0.253 |
| GTTTGCACATGGACCGGTTTTCCCGGTAATCCGTATTTGTA (site GTGTGCACTTA) | 0.0346 |
| GTTTGCACATGGACCGGTTTTCCCGGTAATCCGTATTTGTA (site GTTTGCACTTA) | 0.721 |
| GTTTGGACATGGACCGGTTTTCCCGGTAATCCGTATTTGAC (site GATTGGACTGT) | 0 |
| GTTTGGACATGGACCGGTTTTCCCGGTAATCCGTATTTGAC (site GCTTGGACTGT) | 1 |
| GTTTGGACATGGACCGGTTTTCCCGGTAATCCGTATTTGAC (site GGTTGGACTGT) | 0 |
| GTTTGGACATGGACCGGTTTTCCCGGTAATCCGTATTTGAC (site GTTTGGACTGT) | 1.91 |

| Sequence | recombinant UMI read abundance (log10) |
| --- | --- |
| TAAAGCCCATGGACCGGTTTTCCCGGTAATCCGTATTTGTA (site TAAAGACCTTA) | 0.00168 |
| TAAAGCCCATGGACCGGTTTTCCCGGTAATCCGTATTTGTA (site TAAAGCCCTTA) | 1.58 |
| TAAAGCCCATGGACCGGTTTTCCCGGTAATCCGTATTTGTA (site TAAAGGCCTTA) | 0.00691 |
| TAAAGCCCATGGACCGGTTTTCCCGGTAATCCGTATTTGTA (site TAAAGTCCTTA) | 0.0272 |
| TAAAGGGCATGGACCGGTTTTCCCGGTAATCCGTATTTGTG (site TAAAGGGCTCA) | 1.23 |
| TAAAGTACATGGACCGGTTTTCCCGGTAATCCGTATTTGTA (site TAAAGTACTTA) | 1.41 |
| TAAAGTACATGGACCGGTTTTCCCGGTAATCCGTATTTGTA (site TAAAGTCCTTA) | 0.00305 |
| TAAAGTACATGGACCGGTTTTCCCGGTAATCCGTATTTGTA (site TAAAGTGCTTA) | 0.204 |
| TAAAGTACATGGACCGGTTTTCCCGGTAATCCGTATTTGTA (site TAAAGTTCTTA) | 0 |
| TAAAGTCCATGGACCGGTTTTCCCGGTAATCCGTATTTGAA (site TAAAGTCCTTA) | 0.00424 |
| TAAAGTCCATGGACCGGTTTTCCCGGTAATCCGTATTTGAA (site TAAAGTCCTTC) | 0.144 |
| TAAAGTCCATGGACCGGTTTTCCCGGTAATCCGTATTTGAA (site TAAAGTCCTTG) | 0 |
| TAAAGTCCATGGACCGGTTTTCCCGGTAATCCGTATTTGAA (site TAAAGTCCTTT) | 0.775 |
| TAACCCACATGGACCGGTTTTCCCGGTAATCCGTATTTGTG (site TAACCCACTCA) | 0.0264 |
| TAACCTTCATGGACCGGTTTTCCCGGTAATCCGTATTTGGT (site TAACCTTCTAC) | 0.00557 |
| TAACCTTCATGGACCGGTTTTCCCGGTAATCCGTATTTGGT (site TACCCTTCTAC) | 0.00501 |
| TAACCTTCATGGACCGGTTTTCCCGGTAATCCGTATTTGGT (site TAGCCTTCTAC) | 0.244 |
| TAACCTTCATGGACCGGTTTTCCCGGTAATCCGTATTTGGT (site TATCCTTCTAC) | 0 |
| TAACTAGCATGGACCGGTTTTCCCGGTAATCCGTATTTGCG (site TAACTAGCTCG) | 0 |
| TAACTCCCATGGACCGGTTTTCCCGGTAATCCGTATTTGGC (site TAACTCCCTGC) | 0.847 |
| TAACTTCCATGGACCGGTTTTCCCGGTAATCCGTATTTGCA (site TAACTTCCTTG) | 0.949 |
| TAAGAAACATGGACCGGTTTTCCCGGTAATCCGTATTTGCT (site TAAGAAACTAG) | 2.12 |
| TAAGACCCATGGACCGGTTTTCCCGGTAATCCGTATTTGTT (site TAAGACCCTAA) | 0.806 |
| TAAGCAGCATGGACCGGTTTTCCCGGTAATCCGTATTTGCT (site AAAGCAGCTAG) | 0.00963 |
| TAAGCAGCATGGACCGGTTTTCCCGGTAATCCGTATTTGCT (site CAAGCAGCTAG) | 0.371 |
